Results taken from patent EP0406111A1, “Substituted arylamines and heteroarylamines, process for their preparation and pharmaceutical composition containing them” (SOCIETE DE CONSEILS DE […] D'APPLICATIONS SCIENTIFIQUES …, priority 1989, dated 1991).
Where two headings read alike, the source gives them in different places.

How the values were obtained:
[1] = Toxicity test in mice, 100 mg/kg intraperitoneal; parameters: species or system souris; settings: mouse, in vivo, ip, 100 mg/kg i.p., read-out: Toxicité à 100 mg/kg i.p. % mortalité à 48 h
Procedure: Le tableau 6 annexé illustre les résultats d'essais de toxicité effectués chez la souris sur les amines substituées de l'invention à une dose de 100mg/kg par voie intrapéritonéale.

[2] = molecular target: T1, capture de noradrénaline (Rattus norvegicus, UniProt Q63380); test: Tritiated noradrenaline uptake by crude synaptosomal preparations of rat hypothalamus (Example 37); format: biochemical; settings: rat hypothalamus synaptosomes, 50 nM tritiated noradrenaline, 10 min at 37°C; read-out: Capture 3H-NA IC₅₀
T1 construct: préparations synaptosomales brutes d'hypothalamus de rats; from tissue; host or cells: male Sprague-Dawley rat hypothalamus, crude synaptosomal fraction
T1 sequence (Q63380 1-617): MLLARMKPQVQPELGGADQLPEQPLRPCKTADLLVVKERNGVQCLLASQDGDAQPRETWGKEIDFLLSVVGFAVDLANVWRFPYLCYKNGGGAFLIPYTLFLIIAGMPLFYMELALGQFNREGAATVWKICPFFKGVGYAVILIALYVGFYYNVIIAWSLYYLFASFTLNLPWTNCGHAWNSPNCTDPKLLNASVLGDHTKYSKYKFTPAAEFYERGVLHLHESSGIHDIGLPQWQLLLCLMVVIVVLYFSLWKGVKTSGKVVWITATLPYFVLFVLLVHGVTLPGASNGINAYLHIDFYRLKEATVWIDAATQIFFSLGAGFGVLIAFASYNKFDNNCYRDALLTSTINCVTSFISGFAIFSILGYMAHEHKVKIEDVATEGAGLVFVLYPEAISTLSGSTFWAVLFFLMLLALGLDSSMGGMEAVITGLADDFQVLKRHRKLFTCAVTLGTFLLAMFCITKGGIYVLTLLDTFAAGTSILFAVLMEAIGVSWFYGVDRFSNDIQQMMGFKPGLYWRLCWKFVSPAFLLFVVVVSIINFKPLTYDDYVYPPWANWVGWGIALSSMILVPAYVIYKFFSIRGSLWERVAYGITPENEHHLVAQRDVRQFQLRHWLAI
Procedure: Exemple 37 : Mesure de la capture de noradrénaline.
La capture de noradrénaline tritiée (40 Ci/mmole) est évaluée à partir de préparations synaptosomales brutes d'hypothalamus de rats (Sprague-Dawley mâle, 200-300g, Charles River, St Aubin lès Elbeuf, France).
Les animaux sont sacrifiés par décapitation et les cerveaux sont rapidement dégagés. Les hypothalami, disséqués à 0-4°C, sont homogénéisés dans 10 volumes (poids/volume) de saccharose 0,32 M préalablement refroidi, au moyen d'un homogénéiseur type Potter-Elvejhem (clairance 80-130 µm, 800 rpm). Les débris cellulaires et le matériel nucléaire sont éliminés par centrifugation (1000 g, 10 min, 4°C). Le surnageant constitue la fraction synaptosomale brute.
Des aliquots (50 µl) de préparation synaptosomale sont préincubés pendant 5 minutes à 37°C, en présence de pargyline 20 µM, et de concentrations croissantes des composés à tester, dans […] d'un milieu Krebs-Ringer enrichi en glucose (composition en mM : NaCl 103, CaCl₂1, MgCl₂ 1, KH₂PO₄ 1, NaHCO₃ 27, acide ascorbique 0,1, glucose 5,4). A l'issue de cette préincubation, la noradrénaline tritiée (concentration finale 50 nM) est ajoutée sous un volume de 40 µl, et l'incubation est poursuivie à 37°C pendant 10 minutes. La réaction est arrêtée par dilution avec 2 ml de milieu glacé et centrifugation (7000 g, 10 minutes, 4°C). Après lavage du culot de centrifugation dans 1 ml de milieu glacé, l'échantillon est à nouveau centrifugé dans les mêmes conditions. Le culot obtenu est remis en suspension dans 250 µl d'eau distillée par sonication (Sonotrode TC 4C). 100 µl de cette suspension sont utilisés pour la mesure de la radioactivité par scintillation liquide (SL 2000, Kontron intertechniques, Trappes, France) et 50 µl pour la détermination des taux de protéines (selon la méthode de Lowry et al.).
La capture non spécifique est étudiée simultanément à 0°C en présence des différentes concentrations de composé.
La capture spécifique (capture totale - capture à 0°C) est exprimée en fentomoles/mg de protéines.
Pour chaque concentration étudiée la mesure était faite en double, 3 à 5 expériences étant pratiquées à des jours différents (préparations synaptosomales différentes). Pour chaque composé, au moins 4 concentrations ont été étudiées (entre 10⁻⁹ et 10⁻⁶M habituellement).

[3] = molecular target: T2, capture de (³H)dopamine par les synaptosomes striataux de rat (Rattus norvegicus, UniProt P23977); test: biochemical
T2 construct: Les culots résultants P2 contenant les synaptosomes bruts sont ensuite utilisés sans purification supplémentaire; from tissue; host or cells: Wistar rat striatum, crude synaptosomes (P2 pellet)
T2 sequence (P23977 whole entry): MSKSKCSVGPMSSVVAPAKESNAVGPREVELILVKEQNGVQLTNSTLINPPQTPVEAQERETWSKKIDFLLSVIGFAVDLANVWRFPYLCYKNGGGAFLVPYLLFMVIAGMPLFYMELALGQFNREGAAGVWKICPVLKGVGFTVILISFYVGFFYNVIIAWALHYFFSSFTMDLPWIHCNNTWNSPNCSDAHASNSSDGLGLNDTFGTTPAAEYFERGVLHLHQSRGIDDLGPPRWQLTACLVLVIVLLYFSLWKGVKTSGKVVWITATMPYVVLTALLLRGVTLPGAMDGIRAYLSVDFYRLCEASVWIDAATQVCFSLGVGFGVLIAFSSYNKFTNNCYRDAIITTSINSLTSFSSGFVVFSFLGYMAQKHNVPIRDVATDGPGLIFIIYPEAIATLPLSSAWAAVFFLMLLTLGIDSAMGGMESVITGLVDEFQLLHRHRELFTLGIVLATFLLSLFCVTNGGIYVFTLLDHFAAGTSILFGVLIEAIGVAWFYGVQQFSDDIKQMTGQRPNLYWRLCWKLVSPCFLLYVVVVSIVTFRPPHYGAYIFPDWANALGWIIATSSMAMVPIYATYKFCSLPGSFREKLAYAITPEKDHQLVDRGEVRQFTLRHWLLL
Procedure: Ce test est pratiqué selon la méthode utilisée par Vignon et Lazdunski en opérant de la façon suivante. Des rats Wistar pesant 200-250g sont tués par dislocation cervicale. Leurs cerveaux sont rapidement prélevés et les striata sont dissé-qués sur la glace. Les striata sont ensuite homogéné-isés (10 allers-retours) avec un homogénéisant Potter dans 50 volumes de tampon Tris HCl 10 mM à pH 7,4 contenant 0,32 M de sucrose. L'homogénat est ensuite centrifugé à 1000g pendant 10min à 4°C, puis le surnageant obtenu est recentrifugé à 10000g pendant 20min à 4°C. Les culots résultants P2 contenant les synaptosomes bruts sont ensuite utilisés sans purification supplémentaire.
On ajoute alors de la dopamine tritiée ((³H)DA, Amersham) à une concentration finale de 5 nM pendant 5 min à 30°C, et on interrompt sa capture par filtration de 150 µl du milieu d'incubation sur des filtres en fibres de verre GF/B (Whatman). La radioactivité retenue par les filtres est mesurée dans un compteur à scintillation liquide (LKB)avec 3 ml d'ACS (Amersham) comme scintillant. La capture non spécifique est mesurée à 4°C dans des incubations parallèles : elle est ensuite sous-traite de la capture totale mesurée à 30°C.
Les composés à tester sont solubilisés au départ dans de l'eau à une concentration de 1mM et les autres concentrations sont obtenues par des dilutions successives de cette solution mère dans l'eau.

[4] = tested on: souris Swiss; test: Locomotor activity of mice in the Boissier-Simon actimeter (Example 38); format: in vivo; settings: for Activité locomotrice, effect compared with BTCP: 10 mg/kg i.p.; for Activité locomotrice Variation (%) par rapport aux témoins (100%) pour la dose 10 mg/kg,i.p.: 30 min after administration, beams crossed from 20th to 35th minute
Procedure: Exemple 38 : Mesure de l'activité locomotrice.
L'activité locomotrice de souris Swiss (mâles CD1, 25-30 g, Charles River, St Aubin lès Elbeuf, France) est mesurée dans l'actimètre Boissier-Simon (Apelex, Bagneux, France).
30 minutes après l'administration des composés à tester (10 mg/kg, i.p.), les souris sont introduites dans des cages individuelles en Plexiglass (L = 26 cm, l = 20 cm, h = 10 cm), équipées de deux cellules photoélectriques situées à 1 cm au-dessus du plancher. Chaque cellule est reliée à un compteur électromécanique. "L'activité locomotrice" correspond au nombre de rayons traversés, de la 20ème à la 35ème minute après introduction dans les cages d'actimétrie.

[5] = rat striatal synaptosomes, 5 nM (3H)DA, 5 min at 30°C, read-out: [3H] DA IC50

| SMILES | mortality at 48 h [1] | IC50 [2] | IC50 [3, 5] | Activité locomotrice, effect compared with BTCP [4] | Activité locomotrice Variation (%) par rapport aux témoins (100%) pour la dose 10 mg/kg,i.p. [4] | IC50 [3] |
| --- | --- | --- | --- | --- | --- | --- |
| c1ccc2oc(C3(N4CCCCC4)CCCCC3)cc2c1 [composé n^o 4, (benzo(b)furannyl-2)-1 (pipéridino-1)-1 cyclohexane] | 10% | 22.2 nM | 33.8 nM | effet supérieur à celui du BTCP | +169±19% |  |
| c1ccc2sc(C3(N4CCCCC4)CCCCC3)cc2c1 [BTCP, (benzo(b)thiophényl-2)-1 (pipéridino -1) cyclohexane, reference compound] | 0% | 18.3 nM |  |  | +122±12% | 13.9 nM |
| C[C@H]1CC[C@@](c2cc3ccccc3s2)(N2CCCCC2)CC1 [composé n^o 21, (benzo(b)thiophényl-2)-1 c-méthyl-4-r-(pipéridino-1)-1 cyclohexane] | 0% | 16.5 nM | 9.4 nM | effet supérieur à celui du BTCP | +175±27% |  |
| CCCN(CCC)C1(c2cc3ccccc3s2)CCCCC1 [composé no 3, (benzo(b)thiophényl-2)-1 (dipropylamino-1)-1 cyclohexane] | 0% | 22.7 nM | 12.9 nM |  | +53±23% |  |
| CC1CCCN(C2(c3cc4ccccc4s3)CCCCC2)C1 (stereo not drawn) [composé n^o 2, (benzo(b)thiophényl-2)-1 ((méthyl-3 pipéridino)-1)-1 cyclohexane] | 10% | 40 ± 0.5 nM | 9.3 nM | effet supérieur à celui du BTCP | +160±25% |  |
| C[C@H]1CC[C@](c2cc3ccccc3s2)(N2CCCCC2)CC1 [composé n^o 20, (benzo(b)thiophényl-2)-1-t-méthyl-4-r-(pipéridino-1)-1 cyclohexane] | 0% | 94.3 nM | 21.4 nM |  | +40±22% |  |
| CC1CC(C)CN(C2(c3cc4ccccc4s3)CCCCC2)C1 (stereo not drawn) [composé n^o 6, (benzo(b)thiophényl-2)-1 ((diméthyl-3,5 pipéridino)-1)-1 cyclohexane] | 10% | 12.5 nM | 14.9 nM |  | +84±12% |  |
| BrCC1CCCN(C2(c3cc4ccccc4s3)CCCCC2)C1 (stereo not drawn) [composé n^o 10, (benzo(b)thiophényl-2)-1 ((bromométhyl-3 pipéridino)-1)-1 cyclohexane] | 0% | 196 ± 31 nM | 57.1 nM |  | +30±19% |  |
| OC1CCN(C2(c3cc4ccccc4s3)CCCCC2)CC1 [composé 26, (benzo(b)thiophényl-2)-1( (ol-4-pipéridino)-1)-1 cyclohexane] |  |  |  |  | +252±45% |  |
